Read-outs that look alike come from different tables or passages of the source.
What was measured:
[1] = test system: stage IV lung adenocarcinoma; test: CT follow-up of a lung adenocarcinoma patient on crizotinib (FIG. 4); format: in vivo, human; settings: person, 8 weeks
[2] = test system: NSCLC with sensitizing EGFR mutations (dominant measurable lung lesion); settings: for tumor volume: same patient
Description: Patients provided informed consent and their records were retrospectively reviewed with IRB approval.
Baseline and follow-up CT scans were performed to determine response to EGFR-TKI using the clinical chest CT protocol [31]. Follow-up CT scans were performed every 8 weeks for 33 patients enrolled in prospective trials of EGFR-TKI, and at the discretion of the treating providers for 25 patients treated off protocol [5,25,45-47]. […] The nadir (the smallest tumor volume recorded from baseline to TKI termination/last follow-up) was determined for each patient.
1, 2012, were analyzed. Demographics and disease characteristics were summarized with descriptive statistics. A linear mixed effects model, fitting time as a random effect [48], was fitted to the repeated measures of volume data to estimate the effect of time and other prognostic factors on tumor growth. The tumor volume (mm^3) was transformed to the natural logarithm scale, and the logarithm of tumor volume (logeV) was used. The first model was built adjusting only for time in months from baseline. Since the baseline volume (logeV0; the tumor volume measured on the baseline scan performed before the initiation of TKI therapy) may influence the tumor volume and its growth rate, the second model was adjusted for time and logeV0.

Compound | change of lung lesion on CT [1] | tumor volume at nadir ([2]; person, stage IV lung adenocarcinoma, 4 month of therapy, baseline 25,016 mm^3) | tumor volume ([2]; 5 month, regrowth after nadir) | tumor volume ([2]; 7 month)
C[C@@H](Oc1cc(-c2cnn(C3CCNCC3)c2)cnc1N)c1c(Cl)ccc(F)c1Cl [crizotinib] | marked decrease of the lesion and nodular pericardial thickening |  |  | 
C#Cc1cccc(Nc2ncnc3cc(OCCOC)c(OCCOC)cc23)c1 [erlotinib] |  | 5,288 mm^3 | 7,490 mm^3 | 12,922 mm^3
